Experimental data: patent US20240239863A1, “GIP RECEPTOR AGONIST AND USE THEREOF” (HANGZHOU ZHONGMEIHUADONG PHARMACEUTICAL CO., LTD., priority 2022, published 2024)
Like-named read-outs stand apart in the source and are kept apart here. Starred links: 1 amine or outer side, 2 acyl side, 3 side chain; linkers in the order of their positions; H or OH if unused. Non-standard residues stand in square brackets, D forms with d. Residues, ends and D or L forms follow the SMILES beside them. Groups on a side chain read outwards from the residue. No end group written: not given here. *: point of attachment. d(γGlu) = O=C(O)[C@@H](CCC(=O)[*:2])N[*:1]; C18 diacid = O=C(O)CCCCCCCCCCCCCCCCC(=O)*; AEEA = NCCOCCOCC(=O)O; Aib = CC(C)(N)C(=O)O

What was measured:
human GLP-1 receptor [1] = biological target: T1, human GLP-1 receptor (human, UniProt P43220 24-463); test: cell-based or functional assay
[2] = biological target: human GIP receptor (glucose-dependent insulinotropic peptide receptor, GIPR) (human) (UniProt P48546); test: cell-based or functional assay
hGLP-1R = hGLP-1R (Homo sapiens, UniProt P43220); test: Cell agonistic activity at GLP-1 receptor (Example 7); type: cell-based; settings: read-out: hGLP-1R EC50
hGIPR = biological target: T2, hGIPR (Homo sapiens, UniProt P48546); test: HTRF cAMP cell agonistic activity assay, HEK293 stably expressing GIPR (Example 7); type: cell-based
T2 construct: expressed in transfected cells; host or cells: HEK293, stably transduced
T2 sequence (P48546 22-466): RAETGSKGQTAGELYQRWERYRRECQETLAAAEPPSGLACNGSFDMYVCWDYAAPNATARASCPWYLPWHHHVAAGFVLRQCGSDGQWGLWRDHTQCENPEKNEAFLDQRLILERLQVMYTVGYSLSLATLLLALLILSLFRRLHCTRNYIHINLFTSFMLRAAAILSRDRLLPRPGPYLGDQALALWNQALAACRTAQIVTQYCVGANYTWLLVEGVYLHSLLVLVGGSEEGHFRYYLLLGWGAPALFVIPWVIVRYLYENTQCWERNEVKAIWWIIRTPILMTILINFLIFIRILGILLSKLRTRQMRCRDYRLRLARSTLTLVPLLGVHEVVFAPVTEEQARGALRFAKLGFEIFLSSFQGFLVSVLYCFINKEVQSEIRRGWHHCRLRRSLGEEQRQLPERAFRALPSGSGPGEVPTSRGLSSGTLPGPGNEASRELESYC
Procedure: The agonistic activity of the compounds on the receptor was determined using the HTRF kit (purchased from Perkin Elmer). All reagents in the kit were allowed to equilibrate to room temperature before use. A 1× Stimulation Buffer was formulated according to the instruction in the kit for use. […] GIPR cells were digested with trypsin, centrifuged to remove the culture medium. The cells were resuspended in the 1× Stimulation Buffer. After being counted, 9 μL cell dilutions were inoculated into a 384-well plate at 1000 cells/well. 1 μL the 10× compound diluted in step 2 was taken and added to the corresponding test well, wherein 1 μL the 10× initial concentration positive compound was added to the PC hole (Min value), and 1 μL the 10×DMSO buffer (1%) was added to the VC hole (Max value). The plate was centrifuged and incubated at 37 °C for 30 minutes. Eu-cAMP was diluted with Detection buffer to a working concentration, and the diluent was added into the corresponding test well at 5 μL/well. ULight-anti-Camp was diluted with Detection buffer to a working concentration, and the diluent was added into the corresponding test well at 5 μL/well. After being centrifuged, the plate was incubated at room temperature for 1 hour. […] The nonlinear regression method of GraphPad Prism software was used for curve fitting and EC50 calculation.

[3] = parameters: species or system DIO mice; settings: mouse, in vivo
Text: (§1) […] high-fat diet-induced obese (DIO) mice were weighed. When the average weight of the mice is about 40-45 g, they are randomly assigned to Groups G2-G11 based on the body weight of the mice, with 8 mice in each group. Eight C57BL/6 mice fed with normal diet were assigned to Group G1. Each mouse in all groups was housed in a separate cage for 2-3 days to adapt to environment before grouping. During this period, the mice were adaptively caught and administrated with blank solvent daily. The day of grouping was Day 0. The Vehicle group was administrated with blank solvent (propylene glycol: 14.0 mg/mL and disodium hydrogen phosphate: 1.132 mg/mL) at pH 7.4; s.c. means subcutaneous injection; the frequency of administration QD means once a day. Such expressions may be applied to the following Examples.
Based on the assay in Example 11, the cumulative water intake of the mice was also statistically calculated and compared with the water intake of the mice in the Tirzepatide treatment group.

[4] = Body weight of DIO mice, 25 days, different administration ratios (Example 11); type: in vivo; settings: 30 nmol/kg s.c. QD, Day 25
Text: as §1
(§2) The animals were weighed before grouping (i.e. before the first administration) and every 3 days after grouping. At the end of the experiment (Day 25), the mice were fasted for 4 hours. The livers of all mice in Groups G1-G8 were collected and weighed. About 20 mg of the livers were homogenized. The homogenate was taken to measure total cholesterol (TC) and […] (TG).

[5] = Fasting blood glucose in STZ type 2 diabetic mice after 7 days (Example 9); type: in vivo; settings: for Fasting Blood Glucose Value, 0 day: 0 day (baseline)
Text: Male mice were allowed to adapt to new environment for 1 week before treatment. The mice were divided into several groups (n=6-8/group). The individual was screened and divided into groups based on body weight and fasting blood glucose. Grouping was done by screening in a balanced manner, so as to exclude individuals that were too large or too small. A blank buffer or a test compound was subcutaneously administrated to the animals once a day. The individuals in the body weight group were weighted daily before administration, while the individuals in the fasting blood glucose group (fasting for 4 hours) were measured for their blood glucose 7 days after administration.

[6] = Liver total cholesterol (TC) and triglyceride (TG) in DIO mice (Example 11); type: in vivo; settings: 30 nmol/kg s.c. QD, Day 25, fasted 4 hours
Text: as §1, §2

[7] = Body weight of DIO mice after 28 days of administration (Example 10); type: in vivo, DIO male mice; settings: 2 nmol/kg s.c. QD
Procedure: Eight or more C57BL/6J male mice at an age of 16 to 18 weeks and fifty-six or more DIO male mice with obesity induced by high-fat feed at an age of 16 to 18 weeks were selected. After entering the animal facility, all mice were adaptively fed for 3 days or more. They were required to adapt for 3 days before grouping. All mice were measured for body weight, body fat ratio and fasting blood glucose. Fifty-six DIO mice were randomly grouped primarily based on body weight and fasting blood glucose and secondarily based on body fat ratio. 8 C57BL/6J mice of close weekly age were assigned into the healthy control group. Each mouse in all groups was housed in a separate cage for 2-3 days to adapt to environment before grouping. During the period, the mice were adaptively caught and administrated with blank solvent daily. The day of grouping was Day 0, and the administration was continued for 28 days. […]
The body weight of each mouse was recorded every day according to the frequency of administration. Postprandial blood glucose was measured every 3 days, fasting blood glucose was measured every 7 days, and IPGTT (Intraperitoneal Glucose Tolerance Tests) was conducted once before the end point. […]

[8] = Body weight of DIO mice, high dosage, 21 days (Example 12); type: in vivo; settings: 30 nmol/kg s.c. QD
Text: 72 diet-induced obese (DIO) mice were weighed. (Screening and Grouping) When the average weight of the mice is about 40-45 g, they are randomly assigned to Groups G2-G11 based on the body weights of the mice, with 8 mice in each group. Eight C57BL/6 mice fed with normal diet were assigned to Group G1. Each mouse in all groups was housed in a separate cage for 2-3 days to adapt to environment before grouping. During this period, the mice were adaptively caught and administrated with blank solvent (propylene glycol: 14.0 mg/mL and disodium hydrogen phosphate: 1.132 mg/mL, pH 7.4) daily. The day of grouping was Day 0.

human GLP-1 receptor [9] = biological target: T1, human GLP-1 receptor; test: cell-based or functional assay; remark: listed apart in the source
[10] = biological target: T3, human GIP receptor (glucose-dependent insulinotropic peptide receptor, GIPR) (human, UniProt P48546 22-466); test: cell-based or functional assay
T3 sequence (looked up): T2 sequence (P48546 22-466)

[11] = 2.4 nmol/kg s.c. once a day, 7 days
[12] = 14.4 nmol/kg s.c. once a day, 7 days

Sequence of hGLP-1R (P43220 24-463): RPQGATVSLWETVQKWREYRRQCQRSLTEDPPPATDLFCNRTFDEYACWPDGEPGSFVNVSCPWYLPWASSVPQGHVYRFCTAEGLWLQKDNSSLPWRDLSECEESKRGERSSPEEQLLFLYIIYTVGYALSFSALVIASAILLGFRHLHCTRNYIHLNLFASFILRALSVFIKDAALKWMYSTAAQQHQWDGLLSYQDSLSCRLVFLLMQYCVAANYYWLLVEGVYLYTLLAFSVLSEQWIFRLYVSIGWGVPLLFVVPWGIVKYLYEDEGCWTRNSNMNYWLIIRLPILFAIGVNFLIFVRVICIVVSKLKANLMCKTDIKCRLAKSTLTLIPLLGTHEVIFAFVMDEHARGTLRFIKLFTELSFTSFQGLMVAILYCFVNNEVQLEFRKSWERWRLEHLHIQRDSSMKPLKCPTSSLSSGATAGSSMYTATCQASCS

hGLP-1 (7-37) (from UniProt P01275 21-180) (ligand)
EC50(pM), cell agonistic activity (human GLP-1 receptor [1]): 7.01 pM | EC50(pM), cell agonistic activity (cAMP, HTRF) [2]: > 100 pM

CC[C@H](C)[C@H](NC(=O)[C@H](CO)NC(=O)[C@H](Cc1ccc(O)cc1)NC(=O)[C@H](CC(=O)O)NC(=O)[C@H](CO)NC(=O)[C@@H](NC(=O)[C@H](Cc1ccccc1)NC(=O)[C@@H](NC(=O)CNC(=O)[C@H](CCC(=O)O)NC(=O)C(C)(C)NC(=O)[C@@H](N)Cc1ccc(O)cc1)[C@@H](C)O)[C@@H](C)CC)C(=O)N[C@@H](C)C(=O)N[C@@H](CC(C)C)C(=O)N[C@@H](CC(=O)O)C(=O)N[C@@H](CCCNC(=N)N)C(=O)N[C@H](C(=O)N[C@@H](Cc1c[nH]cn1)C(=O)N[C@@H](CCC(N)=O)C(=O)N[C@@H](CCC(N)=O)C(=O)N[C@@H](CC(=O)O)C(=O)N[C@@H](Cc1ccccc1)C(=O)N[C@H](C(=O)N[C@@H](CC(N)=O)C(=O)N[C@@H](Cc1c[nH]c2ccccc12)C(=O)N[C@@H](CC(C)C)C(=O)N[C@@H](CC(C)C)C(=O)N[C@@H](C)C(=O)N[C@@H](CCC(N)=O)C(=O)N[C@@H](CCCCNC(=O)COCCOCCNC(=O)COCCOCCNC(=O)CC[C@@H](NC(=O)CCCCCCCCCCCCCCCCC(=O)O)C(=O)O)C(=O)NCC(=O)O)C(C)C)[C@@H](C)CC [Peptide 14, N-{ε-30}-18-{[(23R)-23-carboxyl-2,11,20-trioxo-10,19-diaza-4,7,13,16-tetraoxatricosyl-23-yl]amino}-18-oxooctadecanoic acid acetyl-[Aib2, L14, R16]-hGIP(1-31)] (H-Y[Aib]EGTFISDYSIALDRIHQQDFVNWLLAQK([AEEA-AEEA-d(γGlu)-C18 diacid])G-OH)
EC50 (hGLP-1R): > 100 pM | EC50 (hGIPR): 3.5 pM

CC[C@H](C)[C@H](NC(=O)[C@H](CC(C)C)NC(=O)[C@H](Cc1c[nH]c2ccccc12)NC(=O)[C@H](CCC(N)=O)NC(=O)[C@@H](NC(=O)[C@H](Cc1ccccc1)NC(=O)[C@H](C)NC(=O)[C@H](CCCCNC(=O)COCCOCCNC(=O)COCCOCCNC(=O)CC[C@H](NC(=O)CCCCCCCCCCCCCCCCCCC(=O)O)C(=O)O)NC(=O)[C@H](CCC(N)=O)NC(=O)[C@H](C)NC(=O)[C@@H](NC(=O)[C@H](CCCCN)NC(=O)[C@H](CC(=O)O)NC(=O)[C@H](CC(C)C)NC(=O)C(C)(C)NC(=O)[C@@H](NC(=O)[C@H](CO)NC(=O)[C@H](Cc1ccc(O)cc1)NC(=O)[C@H](CC(=O)O)NC(=O)[C@H](CO)NC(=O)[C@@H](NC(=O)[C@H](Cc1ccccc1)NC(=O)[C@@H](NC(=O)CNC(=O)[C@H](CCC(=O)O)NC(=O)C(C)(C)NC(=O)[C@@H](N)Cc1ccc(O)cc1)[C@@H](C)O)[C@@H](C)O)[C@@H](C)CC)[C@@H](C)CC)C(C)C)C(=O)N[C@@H](C)C(=O)NCC(=O)NCC(=O)N1CCC[C@H]1C(=O)N[C@@H](CO)C(=O)N[C@@H](CO)C(=O)NCC(=O)N[C@@H](C)C(=O)N1CCC[C@H]1C(=O)N1CCC[C@H]1C(=O)N1CCC[C@H]1C(=O)N[C@@H](CO)C(N)=O [Tirzepatide]
water intake / adverse responses [3]: significantly inhibited

N^6,26-{18-[N-(17-carboxylheptadecanoyl)-L-γ-glutamyl]-10-oxo-3,6,12,15-tetraoxa-9,18-diazaoctadecanoyl}-[8-(2-amino-2-propionic acid), 34-L-arginine] human glucagon-like peptide 1 (7-37) [GLP-1 Analog]
Body Weight [4]: 31.1 ± 0.7 g | Body Weight ([4]; listed as GLP-1 Analogs): 31.1 ± 0.7 g | Fasting Blood Glucose Value, 0 day ([5]; 2.4 nmol/kg s.c. once a day): 27.17 ± 2.01 mmol/L | Decrease of Blood Glucose, 7 days [5, 11]: 27.10 ± 13.55% | Fasting Blood Glucose Value, 7 days [5, 11]: 19.82 ± 3.79 mmol/L | Fasting Blood Glucose Value, 0 day ([5]; 14.4 nmol/kg s.c. once a day): 26.96 ± 1.60 mmol/L | Decrease of Blood Glucose, 7 days [5, 12]: 49.30 ± 17.03% | Fasting Blood Glucose Value, 7 days [5, 12]: 13.66 ± 4.94 mmol/L | blood glucose values, single drug treatment ([5]; 2.4 and 14.4 nmol/kg, 7 days): decrease in blood glucose values | TC [6]: 4.89 ± 0.12 mM | TG [6]: 0.91 ± 0.03 mM | Weight [7]: 40.2 ± 1.5 g | Weight Change [7]: −3.2% | Body Weight Reduction Percentage at Day 21 [8]: 24.7 ± 1.3 % | Body Weight ([8]; Day 21): 33.1 ± 0.7 g

Y[Aib]EGTFISDYSIALDRLHQQDFVNWLLAQKG (also: long-acting conjugating component, site and structure not given here) [Peptide 18 (long-acting conjugate of GIP analog, Seq ID. 18)]
EC50(pM), cell agonistic activity (human GLP-1 receptor [9]): > 100 pM | EC50(pM), cell agonistic activity (cAMP, HTRF) [10]: 21.1 pM

Y[Aib]EGTFISDYSIALDRLHQQDFVKWLLAQRG (also: long-acting conjugating component, site and structure not given here) [Peptide 17 (long-acting conjugate of GIP analog, Seq ID. 17)]
EC50(pM), cell agonistic activity (human GLP-1 receptor [9]): > 100 pM | EC50(pM), cell agonistic activity (cAMP, HTRF) [10]: 25.7 pM

Y[Aib]EGTFISDYSIALDRLHQEDFVNWLLAQKG (also: long-acting conjugating component, site and structure not given here) [Peptide 16 (long-acting conjugate of GIP analog, Seq ID. 16)]
EC50(pM), cell agonistic activity (human GLP-1 receptor [9]): > 100 pM | EC50(pM), cell agonistic activity (cAMP, HTRF) [10]: 3.77 pM
